This passage reports solubility (mole fraction) results from BigSolDB 2.1.

SMILES strings stand for the structures.

A word on the solubility (mole fraction): it is the moles of solute divided by all moles in the saturated solution. `Nc1ccc(S(=O)(=O)Nc2nccs2)cc1` showed a solubility (mole fraction) (in n-octanol, 298.15 K) of 9.49e-05; a solubility (mole fraction) (in n-octanol, 303.15 K) of 0.00013; a solubility (mole fraction) (in n-octanol, 308.15 K) of 0.000168; a solubility (mole fraction) (in n-octanol, 313.15 K) of 0.000206; a solubility (mole fraction) (in water, 298.15 K) of 3.25e-05; a solubility (mole fraction) (in water, 303.15 K) of 4.33e-05. Besides, the solubility (mole fraction) worked out at 5.92e-05 (in water, 308.15 K) and 7.35e-05 (in water, 313.15 K).
Consider `Nc1ccc(S(=O)(=O)Nc2ncccn2)cc1`, for which the solubility (mole fraction) reads like this: (in n-octanol, 298.15 K) 1.39e-05; (in n-octanol, 303.15 K) 1.79e-05; (in n-octanol, 308.15 K) 2.32e-05; (in n-octanol, 313.15 K) 3.09e-05; (in water, 298.15 K) 4.87e-06; (in water, 303.15 K) 5.98e-06. This molecule also gave a solubility (mole fraction) (in water, 308.15 K) of 7.94e-06 and a solubility (mole fraction) (in water, 313.15 K) of 1.09e-05.
